Data from ChEMBL document CHEMBL6078684, “Discovery of a Novel Non-invasive AR PROTAC Degrader for the Topical Treatment of Androgenetic Alopecia” (J Med Chem, 2024).
Active and inactive are the calls of the source. No cut-off for these calls is given here.

Tests used:
[1] = Drug uptake in male Sprague-Dawley rat Dorsal skin assessed as retention rat at 1 mg/ml, TOP measured after 30 mins by LC-MS/MS analysis; type: ADME, tissue-based, Zone of skin; details: in vivo, topical_or_ocular, 0.5 h
[2] = target: T1, Protein cereblon/Androgen receptor (Homo sapiens, UniProt P10275+Q96SW2); test: PROTAC activity at CRBN/AR in human dermal papilla cells assessed as induction of AR degradation at 500 nM in presence of MLN4924 by Western blot analysis; type: cell-based; details: Human dermal papilla cell
T1 sequence (P10275 whole entry, looked up): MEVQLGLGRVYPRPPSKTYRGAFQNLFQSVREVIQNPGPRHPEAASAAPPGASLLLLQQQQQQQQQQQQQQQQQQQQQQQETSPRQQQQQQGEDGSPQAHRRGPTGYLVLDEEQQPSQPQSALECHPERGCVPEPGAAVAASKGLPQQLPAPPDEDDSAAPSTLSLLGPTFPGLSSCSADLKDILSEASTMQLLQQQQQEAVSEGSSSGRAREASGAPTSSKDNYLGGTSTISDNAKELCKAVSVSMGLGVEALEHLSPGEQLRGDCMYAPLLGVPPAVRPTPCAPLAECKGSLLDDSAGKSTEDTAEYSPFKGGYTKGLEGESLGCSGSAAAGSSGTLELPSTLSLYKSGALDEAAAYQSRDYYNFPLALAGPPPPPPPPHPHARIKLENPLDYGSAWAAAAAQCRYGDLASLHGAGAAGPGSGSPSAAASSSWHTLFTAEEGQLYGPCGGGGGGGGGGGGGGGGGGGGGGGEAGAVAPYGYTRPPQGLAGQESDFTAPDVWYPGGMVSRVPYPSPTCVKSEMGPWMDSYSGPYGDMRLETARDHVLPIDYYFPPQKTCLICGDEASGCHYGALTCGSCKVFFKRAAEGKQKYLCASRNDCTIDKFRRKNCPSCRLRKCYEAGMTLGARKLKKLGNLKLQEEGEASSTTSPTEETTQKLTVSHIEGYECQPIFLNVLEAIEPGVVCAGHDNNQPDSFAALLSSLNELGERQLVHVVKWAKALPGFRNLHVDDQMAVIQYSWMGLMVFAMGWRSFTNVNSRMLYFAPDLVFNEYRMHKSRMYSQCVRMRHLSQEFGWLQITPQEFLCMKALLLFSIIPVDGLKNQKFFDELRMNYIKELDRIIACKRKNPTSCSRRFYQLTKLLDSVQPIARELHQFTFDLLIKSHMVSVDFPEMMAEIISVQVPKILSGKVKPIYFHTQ
T1 sequence (Q96SW2 whole entry, looked up): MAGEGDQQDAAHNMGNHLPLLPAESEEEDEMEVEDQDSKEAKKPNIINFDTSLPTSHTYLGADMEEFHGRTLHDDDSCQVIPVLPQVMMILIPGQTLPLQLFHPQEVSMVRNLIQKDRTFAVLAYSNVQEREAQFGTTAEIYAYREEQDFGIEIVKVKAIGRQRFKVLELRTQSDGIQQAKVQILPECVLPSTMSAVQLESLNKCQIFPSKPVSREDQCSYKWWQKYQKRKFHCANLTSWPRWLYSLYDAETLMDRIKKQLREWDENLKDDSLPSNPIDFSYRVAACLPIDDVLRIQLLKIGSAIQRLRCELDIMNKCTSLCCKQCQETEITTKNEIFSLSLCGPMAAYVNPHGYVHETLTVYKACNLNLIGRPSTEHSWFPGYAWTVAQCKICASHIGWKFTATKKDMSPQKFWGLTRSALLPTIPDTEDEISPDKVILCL

[3] = target: T1, Protein cereblon/Androgen receptor; test: PROTAC activity at CRBN/AR in human dermal papilla cells assessed as decrease in AR protein level at 1 uM preincubated with testosterone for 24 hrs followed by compound addition and measured after 48 hrs by Western blot analysis; type: cell-based; details: Human dermal papilla cell
[4] = target: T1, Protein cereblon/Androgen receptor; test: PROTAC activity at CRBN/AR in human dermal papilla cells assessed as inhibition of TGF-beta1 release by measuring TGF-beta1 concentration at 1 uM preincubated with testosterone for 24 hrs followed by compound addition and measured after 48 hrs by ELISA; type: cell-based; details: Human dermal papilla cell
[5] = target: T1, Protein cereblon/Androgen receptor; test: PROTAC activity at CRBN/AR in human dermal papilla cells assessed as inhibition of TGF-beta1 release by measuring fold change in TGF-beta1 concentration at 1 uM preincubated with testosterone for 24 hrs followed by compound addition and measured after 48 hrs by ELISA relative to enzalutamide; type: cell-based; details: Human dermal papilla cell
[6] = Ratio of drug concentration in male ICR mouse skin to heart at 4 mg/ml, TOP measured after 0.5 hrs by LC-MS/MS analysis; type: ADME, tissue-based; details: in vivo, topical_or_ocular
[7] = AUC (0 to t) in male ICR mouse plasma at 4 mg/ml, TOP measured after 12 hrs by LC-MS/MS analysis; type: ADME, cell-free; details: topical or ocular
[8] = Drug uptake in male ICR mouse spleen at 4 mg/ml, TOP measured after 12 hrs by LC-MS/MS analysis; type: ADME, tissue-based; details: in vivo, topical_or_ocular
[9] = Ratio of drug concentration in male ICR mouse skin to plasma at 4 mg/ml, TOP measured after 0.5 hrs by LC-MS/MS analysis; type: ADME, cell-free; details: topical or ocular
[10] = Ratio of drug concentration in male ICR mouse skin to plasma at 4 mg/ml, TOP measured after 12 hrs by LC-MS/MS analysis; type: ADME, cell-free; details: other tissue, topical_or_ocular
[11] = Ratio of drug concentration in male ICR mouse skin to heart at 4 mg/ml, TOP measured after 1 hrs by LC-MS/MS analysis; type: ADME, tissue-based; details: in vivo, topical_or_ocular
[12] = Ratio of drug concentration in male ICR mouse skin to heart at 4 mg/ml, TOP measured after 4 hrs by LC-MS/MS analysis; type: ADME, tissue-based; details: in vivo, topical_or_ocular
[13] = Ratio of drug concentration in male ICR mouse skin to liver at 4 mg/ml, TOP measured after 0.25 hrs by LC-MS/MS analysis; type: ADME, tissue-based; details: in vivo, topical_or_ocular
[14] = Ratio of drug concentration in male ICR mouse skin to liver at 4 mg/ml, TOP measured after 2 hrs by LC-MS/MS analysis; type: ADME, tissue-based; details: in vivo, topical_or_ocular
[15] = Ratio of drug concentration in male ICR mouse skin to liver at 4 mg/ml, TOP measured after 12 hrs by LC-MS/MS analysis; type: ADME, tissue-based; details: in vivo, topical_or_ocular
[16] = Ratio of drug concentration in male ICR mouse skin to spleen at 4 mg/ml, TOP measured after 0.25 hrs by LC-MS/MS analysis; type: ADME, tissue-based; details: in vivo, topical_or_ocular
[17] = Ratio of drug concentration in male ICR mouse skin to spleen at 4 mg/ml, TOP measured after 0.5 hrs by LC-MS/MS analysis; type: ADME, tissue-based; details: in vivo, topical_or_ocular
[18] = Ratio of drug concentration in male ICR mouse skin to spleen at 4 mg/ml, TOP measured after 1 hrs by LC-MS/MS analysis; type: ADME, tissue-based; details: in vivo, topical_or_ocular
[19] = Ratio of drug concentration in male ICR mouse skin to spleen at 4 mg/ml, TOP measured after 8 hrs by LC-MS/MS analysis; type: ADME, tissue-based; details: in vivo, topical_or_ocular
[20] = Ratio of drug concentration in male ICR mouse skin to spleen at 4 mg/ml, TOP measured after 12 hrs by LC-MS/MS analysis; type: ADME, tissue-based; details: in vivo, topical_or_ocular
[21] = Ratio of drug concentration in male ICR mouse skin to lungs at 4 mg/ml, TOP measured after 0.25 hrs by LC-MS/MS analysis; type: ADME, tissue-based, Skin/Lung; details: in vivo, topical_or_ocular
[22] = Ratio of drug concentration in male ICR mouse skin to lungs at 4 mg/ml, TOP measured after 1 hrs by LC-MS/MS analysis; type: ADME, tissue-based, Skin/Lung; details: in vivo, topical_or_ocular
[23] = Ratio of drug concentration in male ICR mouse skin to lungs at 4 mg/ml, TOP measured after 4 hrs by LC-MS/MS analysis; type: ADME, tissue-based, Skin/Lung; details: in vivo, topical_or_ocular
[24] = Ratio of drug concentration in male ICR mouse skin to lungs at 4 mg/ml, TOP measured after 8 hrs by LC-MS/MS analysis; type: ADME, tissue-based, Skin/Lung; details: in vivo, topical_or_ocular
[25] = Ratio of drug concentration in male ICR mouse skin to kidney at 4 mg/ml, TOP measured after 0.25 hrs by LC-MS/MS analysis; type: ADME, tissue-based; details: in vivo, topical_or_ocular
[26] = Ratio of drug concentration in male ICR mouse skin to kidney at 4 mg/ml, TOP measured after 1 hrs by LC-MS/MS analysis; type: ADME, tissue-based; details: in vivo, topical_or_ocular
[27] = Ratio of drug concentration in male ICR mouse skin to kidney at 4 mg/ml, TOP measured after 4 hrs by LC-MS/MS analysis; type: ADME, tissue-based; details: in vivo, topical_or_ocular
[28] = Ratio of drug concentration in male ICR mouse skin to kidney at 4 mg/ml, TOP measured after 12 hrs by LC-MS/MS analysis; type: ADME, tissue-based; details: in vivo, topical_or_ocular
[29] = test system: Mus musculus; test: Hair regeneration efficacy in testosterone induced male C57BL/6 mouse androgenetic alopecia model assessed as well formed stratum corneum in hair at 0.4 %, TOP administered once daily for 14 days with co-administration of 0.2% testosterone and measured after 28 days by SEM analysis; type: functional, organism-based; details: time 28.0 day
[30] = test system: Mus musculus; test: Hair regeneration efficacy in testosterone induced male C57BL/6 mouse androgenetic alopecia model assessed as increase in hair density at 0.4 %, TOP administered once daily for 14 days with co-administration of 0.2% testosterone and measured after 28 days by trichoscope photographic analysis; type: functional, organism-based; details: time 28.0 day
[31] = test system: Mus musculus; test: Hair regeneration efficacy in testosterone induced male C57BL/6 mouse androgenetic alopecia model assessed as increase in hair cycle score at 0.4 %, TOP administered once daily for 14 days with co-administration of 0.2% testosterone for 28 days; type: functional, organism-based; details: time 14.0 day
[32] = test system: Mus musculus; test: Hair regeneration efficacy in testosterone induced male C57BL/6 mouse androgenetic alopecia model assessed as increase in hair cycle score at 0.1 %, TOP administered once daily for 14 days with co-administration of 0.2% testosterone for 28 days; type: functional, organism-based; details: time 14.0 day
[33] = target: Protein cereblon/Androgen receptor (Mus musculus) (UniProt P19091+Q8C7D2); test: (§1) In vivo PROTAC activity at CRBN/AR in testosterone induced male C57BL/6 mouse androgenetic alopecia model assessed as decrease in TGF-beta expression level in skin at 0.4 % TOP administered once daily for 14 days with co-administration of 0.2% testosterone for 28 days by DAPI staining based immunofluorescence analysis; type: functional, organism-based; details: time 14.0 day
Chain of Protein cereblon/Androgen receptor (Mus musculus) (P19091 whole entry, looked up): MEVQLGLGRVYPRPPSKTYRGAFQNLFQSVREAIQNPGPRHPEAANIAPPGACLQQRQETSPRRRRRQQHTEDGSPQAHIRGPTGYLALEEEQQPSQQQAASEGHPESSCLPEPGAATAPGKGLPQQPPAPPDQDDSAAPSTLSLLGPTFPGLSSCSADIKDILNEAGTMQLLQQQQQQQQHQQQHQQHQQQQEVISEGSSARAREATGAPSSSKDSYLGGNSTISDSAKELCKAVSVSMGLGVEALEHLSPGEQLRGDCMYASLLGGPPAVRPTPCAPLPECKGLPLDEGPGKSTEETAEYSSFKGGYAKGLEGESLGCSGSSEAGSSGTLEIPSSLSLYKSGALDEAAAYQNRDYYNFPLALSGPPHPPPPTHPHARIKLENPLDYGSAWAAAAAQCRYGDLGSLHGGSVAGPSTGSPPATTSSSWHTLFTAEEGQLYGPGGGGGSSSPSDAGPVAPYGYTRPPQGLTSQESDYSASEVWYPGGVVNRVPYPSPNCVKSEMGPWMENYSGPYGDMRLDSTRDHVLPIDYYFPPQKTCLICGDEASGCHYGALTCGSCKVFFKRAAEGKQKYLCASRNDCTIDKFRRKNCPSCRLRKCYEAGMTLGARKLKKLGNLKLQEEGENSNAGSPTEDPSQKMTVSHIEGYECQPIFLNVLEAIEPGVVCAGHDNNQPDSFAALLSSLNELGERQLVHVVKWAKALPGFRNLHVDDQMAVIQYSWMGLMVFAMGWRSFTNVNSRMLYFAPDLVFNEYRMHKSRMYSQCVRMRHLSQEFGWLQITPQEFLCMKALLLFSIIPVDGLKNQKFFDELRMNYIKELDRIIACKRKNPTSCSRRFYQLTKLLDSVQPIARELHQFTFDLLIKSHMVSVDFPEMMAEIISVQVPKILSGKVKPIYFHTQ
Chain of Protein cereblon/Androgen receptor (Mus musculus) (Q8C7D2 whole entry, looked up): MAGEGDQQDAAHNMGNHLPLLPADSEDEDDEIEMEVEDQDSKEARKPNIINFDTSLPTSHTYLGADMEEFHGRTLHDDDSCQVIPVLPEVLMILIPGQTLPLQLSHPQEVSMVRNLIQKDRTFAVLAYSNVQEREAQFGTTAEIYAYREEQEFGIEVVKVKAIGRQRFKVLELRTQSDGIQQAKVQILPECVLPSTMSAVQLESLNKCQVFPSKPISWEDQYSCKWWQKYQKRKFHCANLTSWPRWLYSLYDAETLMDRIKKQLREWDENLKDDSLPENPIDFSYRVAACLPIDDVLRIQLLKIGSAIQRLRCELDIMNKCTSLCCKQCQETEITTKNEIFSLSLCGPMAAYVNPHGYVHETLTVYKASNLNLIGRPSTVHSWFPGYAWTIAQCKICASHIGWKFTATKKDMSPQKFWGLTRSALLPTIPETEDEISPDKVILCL

[34] = test system: Mus musculus; test: as §1, with “Hair regeneration efficacy” for “In vivo PROTAC activity at CRBN/AR”, “increase” for “decrease”, “Ki67” for “TGF-beta”, “expression” for “expression level”; type: functional, organism-based; details: time 14.0 day
[35] = test system: Mus musculus; test: Hair regeneration efficacy in testosterone induced male C57BL/6 mouse androgenetic alopecia model assessed as increase in Ki67 expression in skin at 0.1 % TOP administered once daily for 14 days with co-administration of 0.2% testosterone for 28 days by DAPI staining based immunofluorescence analysis; type: functional, organism-based; details: time 14.0 day

Drug uptake [1]: 2.48%
Activity [4]: 736 pg/mL
fold change (FC) [5]: 0.62
Ratio [6]: 119.61
AUC(0-t) at 12 h [7]: 992 ng·h/mL
Drug uptake [8]: Active
Kp at 0.5 h [9]: 129
Ratio [10]: 1736.28
Ratio [11]: 996.6
Ratio [12]: 403.09
Ratio [13]: 344.99
Ratio [14]: 441.98
Ratio [15]: 173.24
Ratio [16]: 510.81
Ratio [17]: 67.05
Ratio [18]: 472.95
Ratio [19]: 347.97
Ratio [20]: 249.88
Ratio [21]: 269.54
Ratio [22]: 476.62
Ratio [23]: 238.43
Ratio [24]: 800.46
Ratio [25]: 484.4
Ratio [26]: 467.24
Ratio [27]: 285.69
Ratio [28]: 101.26
Activity [33]: Active
SMILES: N#Cc1ccc(O[C@H]2CC[C@H](NC(=O)c3ccc(C4CCN(CC5CCCN(c6ccc(C(=O)NC7CCC(=O)NC7=O)cc6)C5)CC4)cc3)CC2)cc1Cl (stereo not given in full)
Activity [2]: Not active; Compound Activity Dependent On Ubiquitin-Proteosome System
Activity [3]: Active; Most Pronounced Degradation Observed
Activity [29]: Active
Activity [30]: Active
Activity [31]: Active
Activity [32]: Active; Less Effective Compared To High Dose Compound Group And Minoxidil Group
Activity [34]: Active
Activity [35]: Active; Moderate Increase Observed Compared To Model Group
